Laboratory results from patent publication US4363922A, “Esters of antibiotic nodusmicin” (priority 1981, dated 1982).
≈ marks a conversion by molar mass, not a printed value. Where two headings read alike, the source gives them in different places.

Experiments:
[1] = system: S.lutea UC-130; test: Dipped disc agar diffusion assay, S. lutea; conditions: for zone of inhibition at 1000 µg/mL: Micrococcus luteus, UC130, 16 h
[2] = Solubility noted in the MIC determination; conditions: BHI broth
[3] = system: S.aureus UC 80; test: Dipped disc agar diffusion assay, S. aureus; conditions: for zone of inhibition at 1000 µg/mL: Staphylococcus aureus, UC80, 16 h
[4] = system: S.aureus UC-570; test: Minimum Inhibitory Concentration, microplate broth-dilution, S. aureus UC-570; conditions: for MIC: Staphylococcus aureus
[5] = system: S.aureus UC-746; test: Minimum Inhibitory Concentration, microplate broth-dilution, S. aureus UC-746; conditions: for MIC: Staphylococcus aureus
[6] = system: S.aureus UC-76; test: Minimum Inhibitory Concentration, microplate broth-dilution, S. aureus UC-76; conditions: for MIC: Staphylococcus aureus; for MIC S.aureus UC-76: BHI broth
[7] = system: S.pyrogenes UC-152; test: Minimum Inhibitory Concentration, microplate broth-dilution, S. pyrogenes UC-152; conditions: for MIC S.pyrogenes UC-152: BHI broth
[8] = system: B. fragilis; test: Antibiotic activity against B. fragilis; format: cell-based
[9] = system: S. lutea; test: Antibiotic activity against S. lutea; format: cell-based
[10] = system: K. pneumoniae; test: Antibiotic activity against K. pneumoniae; format: cell-based
[11] = system: Mycobacterium avium; test: Antibiotic activity against Mycobacterium avium; format: cell-based
[12] = system: C. perfringens; format: cell-based
[13] = read-out: Agar Diffusion 1 mg./ml. S.lutea UC-130 (inhibition zone)
[14] = read-out: Agar Diffusion 1 mg./ml. S.aureus UC 80 (inhibition zone), 1 mg./ml., 12.7 mm paper disc, 16 hours
[15] = UC570, read-out: MIC S.aureus UC-570
[16] = UC746, read-out: MIC S.aureus UC-746
[17] = UC76, read-out: MIC S.aureus UC-76
[18] = read-out: MIC S.pyrogenes UC-152
[19] = read-out: Agar Diffusion 1 mg./ml. S.aureus UC 80 (inhibition zone)
[20] = UC570, read-out: MIC S.aureus UC-570, BHI broth, sensitive strain
[21] = UC746, read-out: MIC S.aureus UC-746, BHI broth, strain resistant to tetracycline
[22] = UC76, read-out: MIC S.aureus UC-76, BHI broth, sensitive strain
[23] = read-out: MIC S.pyrogenes UC-152, BHI broth
[24] = read-out: zone of inhibition, S. lutea

Row | Compound | zone of inhibition at 1000 µg/mL [1, 13] [mm] | MIC [4, 15] [mg/L] | MIC [5, 16] [mg/L] | MIC [6, 17] [mg/L] | MIC [7, 18] [mg/L] | MIC [7, 23] [mg/L] | also measured
1 | COC1CC2C=CC3C4OC2(C(C)=CC(C)C(C(C)OC(=O)c2ccc[nH]2)OC1=O)C3C(O)C(C)C4OC(=O)c1ccc[nH]1 (stereo not shown) [U-60,908, 9,18-O--Dipyrrole-2-carbonyl-] | 29 |  |  |  |  |  | insoluble [2]: insoluble; zone of inhibition at 1000 µg/mL [3, 14]: 24 mm
2 | COC1CC2C=CC3C4OC2(C(C)=CC(C)C(C(C)O)OC1=O)C3C(O)C(C)C4OC(=O)[C@@H]1CCCN1 (stereo partly drawn) [U-60,933, 9-O--L-Pyrolyl-] | 38 | 62.5 (≈ 120 µM) | 62.5 (≈ 120 µM) | 31.2 (≈ 60 µM) | > 250 |  | zone of inhibition at 1000 µg/mL [3, 19]: 16 mm
3 | COC1CC2C=CC3C4OC2(C(C)=CC(C)C(C(C)OC(=O)c2ccccc2)OC1=O)C3C(O)C(C)C4O (stereo not shown) [18-O--benzoyl-, 18-O-benzoyl-nodusmicin] |  |  |  |  |  |  | insoluble [2]: insoluble
4 | COC1CC2C=CC3C4OC2(C(C)=CC(C)C(C(C)O)OC1=O)C3C(OC(=O)c1ccco1)C(C)C4O (stereo not shown) [U-60,905, 11-O--Furoyl-] | 17 | 500 (≈ 968 µM) | 500 (≈ 968 µM) | 500 (≈ 968 µM) | > 500 |  | 
5 | COC1CC2C=CC3C4OC2(C(C)=CC(C)C(C(C)O)OC1=O)C3C(O)C(C)C4OC(=O)c1cc2ccccc2[nH]1 (stereo not shown) [U-61,273, 9-O--Indole-2-carbonyl-] | 22 |  |  |  |  |  | insoluble [2]: insoluble
6 | COC1CC2C=CC3C4OC2(C(C)=CC(C)C(C(C)O)OC1=O)C3C(O)C(C)C4OC(=O)c1ccc([N+](=O)[O-])[nH]1 (stereo not shown) [U-61,427, 9-O--5-Nitropyrrole-2-carbonyl-] | 32 |  |  |  |  | 250 (≈ 446 µM) | MIC [4, 20]: 250 mg/L (≈ 446 µM); MIC [5, 21]: 125 mg/L (≈ 223 µM); MIC [6, 22]: 125 mg/L (≈ 223 µM)
7 | COC1CC2C=CC3C4OC2(C(C)=CC(C)C(C(C)O)OC1=O)C3C(O)C(C)C4OC(=O)c1ccc(C)[nH]1 (stereo not shown) [U-61,265, 9-O--5-Methylpyrrole-2-carbonyl] | 30 | 31.2 (≈ 58.9 µM) | 31.2 (≈ 58.9 µM) | 31.2 (≈ 58.9 µM) | 125 (≈ 236 µM) |  | zone of inhibition at 1000 µg/mL [3, 19]: 20 mm
8 | COC1CC2C=CC3C4OC2(C(C)=CC(C)C(C(C)O)OC1=O)C3C(O)C(C)C4OC(=O)c1ccc([N+](=O)[O-])o1 (stereo not shown) [U-60,990, 9-O--5-Nitrofuroyl] | 33 | 31.2 (≈ 55.6 µM) | 62.5 (≈ 111 µM) | 31.2 (≈ 55.6 µM) | 125 (≈ 223 µM) |  | 
9 | COC1CC2C=CC3C4OC2(C(C)=CC(C)C(C(C)O)OC1=O)C3C(O)C(C)C4OC(=O)c1ccccc1 (stereo not shown) [9-O--benzoyl-, 9-O-benzoyl-nodusmicin] | 30 |  |  |  |  |  | zone of inhibition at 1000 µg/mL [1, 24]: 30 mm; insoluble [2]: insoluble
10 | COC1CC2C=CC3C4OC2(C(C)=CC(C)C(C(C)O)OC1=O)C3C(O)C(C)C4OC(=O)c1cccnc1 (stereo not shown) [U-60,906, 9-O--Nicotinoyl-] | 32 | 250 (≈ 474 µM) | 250 (≈ 474 µM) | 250 (≈ 474 µM) | 2500 (≈ 4740 µM) |  | 
11 | COC1CC2C=CC3C4OC2(C(C)=CC(C)C(C(C)O)OC1=O)C3C(O)C(C)C4OC(=O)c1ccccn1 (stereo not shown) [U-60,909, 9-O--Picolinoyl-] | 31 | > 250 | > 250 | > 250 | > 250 |  | 
12 | COC1CC2C=CC3C4OC2(C(C)=CC(C)C(C(C)O)OC1=O)C3C(O)C(C)C4OC(=O)c1ccsc1 (stereo not shown) [U-60,910, 9-O-Thiophene-3-carbonyl-nodusmicin] | 40 | 0.25 (≈ 0.469 µM) | 0.5 (≈ 0.939 µM) | 0.5 (≈ 0.939 µM) |  | 125 (≈ 235 µM) | zone of inhibition at 1000 µg/mL [1, 24]: 40 mm; zone of inhibition at 1000 µg/mL [3, 14]: 35 mm; zone of inhibition at 1000 µg/mL ([3]; read-out: zone of inhibition, S. aureus, 1 mg./ml., 0.5 inch disc, agar tray, strain not stated): 35 mm
13 | COC1CC2C=CC3C4OC2(C(C)=CC(C)C(C(C)O)OC1=O)C3C(O)C(C)C4OC(=O)c1ccco1 (stereo not shown) [U-60,898, 9-O--Furoyl-] | 40 | 7.8 (≈ 15.1 µM) | 7.8 (≈ 15.1 µM) | 7.8 (≈ 15.1 µM) | > 250 |  | zone of inhibition at 1000 µg/mL [3, 19]: 30 mm
14 | COC1CC2C=CC3C4OC2(C(C)=CC(C)C(C(C)O)OC1=O)C3C(O)C(C)C4OC(=O)c1ccc(Br)o1 (stereo not shown) [U-61,463, 9-O--5-Bromofuroyl-] | 35 |  |  |  |  |  | zone of inhibition at 1000 µg/mL [3, 19]: 0 mm
15 | COC1CC2C=CC3C4OC2(C(C)=CC(C)C(C(C)O)OC1=O)C3C(O)C(C)C4O (stereo not shown) [U-59,761, nodusmicin] | 40 |  |  |  |  | 500 (≈ 1180 µM) | activity against B. fragilis [8]: active; activity against S. lutea [9]: active; MIC [4, 20]: 250 mg/L (≈ 592 µM); activity against K. pneumoniae [10]: active; MIC [5, 21]: 250 mg/L (≈ 592 µM); MIC [6, 22]: 125 mg/L (≈ 296 µM); activity against Mycobacterium avium [11]: active; activity against C. perfringens [12]: active
16 | COC1CC2C=CC3C4OC2(C(C)=CC(C)C(C(C)O)OC1=O)C3C(O)C(C)C4OC(=O)c1cc([N+](=O)[O-])c[nH]1 (stereo not shown) [U-61,462, 9-O--4-Nitropyrrole-2-carbonyl-] | 36 |  |  |  |  | 125 (≈ 223 µM) | MIC [4, 20]: 31.2 mg/L (≈ 55.7 µM); MIC [5, 21]: 31.2 mg/L (≈ 55.7 µM); MIC [6, 22]: 15.6 mg/L (≈ 27.8 µM); zone of inhibition at 1000 µg/mL [3, 14]: 20 mm
17 | 9-O--3-Furoyl- [U-61,461] |  |  |  |  |  |  | Agar Diffusion 1 mg./ml. S.lutea UC-130 (inhibition zone) ([1]; 1 mg./ml., 12.7 mm paper disc, 16 hours): 41; MIC S.aureus UC-570 ([4]; BHI broth, sensitive strain): 0.25 mg/L; MIC S.aureus UC-746 ([5]; BHI broth, strain resistant to tetracycline): 0.50 mg/L; MIC S.aureus UC-76 ([6]; sensitive strain): 0.50 mg/L; MIC S.pyrogenes UC-152 [7]: 2.50 mg/L; Agar Diffusion 1 mg./ml. S.aureus UC 80 (inhibition zone) ([3]; 12.7 mm paper disc, 16 hours): 35
18 | COC1CC2C=CC3C4OC2(C(C)=CC(C)C(C(C)O)OC1=O)C3C(O)C(C)C4OC(=O)c1cccs1 (stereo not shown) [U-60,989, 9-O--Thiophene-2-carbonyl-] | 41 | 3.9 (≈ 7.32 µM) | 3.9 (≈ 7.32 µM) | 3.9 (≈ 7.32 µM) | 125 (≈ 235 µM) |  | zone of inhibition at 1000 µg/mL [3, 19]: 27 mm
19 | COC1CC2C=CC3C4OC2(C(C)=CC(C)C(C(C)O)OC1=O)C3C(O)C(C)C4OC(=O)c1cccn1C (stereo not shown) [U-60,988, 9-O--N--Methylpyrrole-2-carbonyl-] | 24 |  |  |  |  | 125 (≈ 236 µM) | MIC [4, 20]: > 250 mg/L; MIC [5, 21]: 250 mg/L (≈ 472 µM); MIC [6, 22]: 250 mg/L (≈ 472 µM)
20 | COC1CC2C=CC3C4OC2(C(C)=CC(C)C(C(C)O)OC1=O)C3C(O)C(C)C4OC(=O)c1ccncc1 (stereo not shown) [U-60,925, 9-O--Isonicotinoyl] | 38 | 250 (≈ 474 µM) | 250 (≈ 474 µM) | 250 (≈ 474 µM) | > 250 |  | 
21 | COC1CC2C=CC3C4OC2(C(C)=CC(C)C(C(C)OC(=O)c2ccc[nH]2)OC1=O)C3C(O)C(C)C4O (stereo not shown) [U-60,907, 18-O--Pyrrole-2-carbonyl] | 33 |  |  |  |  | > 250 | MIC [4, 20]: 3.9 mg/L (≈ 7.56 µM); MIC [5, 21]: 15.6 mg/L (≈ 30.3 µM); MIC [6, 22]: 7.8 mg/L (≈ 15.1 µM); zone of inhibition at 1000 µg/mL [3, 14]: 27 mm
22 | COC1CC2C=CC3C4OC2(C(C)=CC(C)C(C(C)O)OC1=O)C3C(O)C(C)C4OC(=O)c1ccc[nH]1 (stereo not shown) [U-59,760, 9-O-pyrrole-2-carbonyl ester of nodusmicin, reference compound] | 44 |  |  |  |  | > 125 | MIC S.aureus UC-76 ([6]; sensitive strain): 0.125 mg/L (≈ 0.242 µM); MIC [6, 22]: 0.0625 mg/L (≈ 0.121 µM); MIC S.pyrogenes UC-152 [7]: 62.5 mg/L (≈ 121 µM); Agar Diffusion 1 mg./ml. S.aureus UC 80 (inhibition zone) ([3]; 12.7 mm paper disc, 16 hours): 38; zone of inhibition at 1000 µg/mL [3, 14]: 37 mm
23 | COC1CC2C=CC3C4OC2(C(C)=CC(C)C(C(C)O)OC1=O)C3C(O)C(C)C4OC(=O)c1cnccn1 (stereo not shown) [U-61,264, 9-O--Pyrrazine-2-carbonyl] | 27 | > 125 | > 125 | > 125 | > 125 |  | 
